Measurements published in the supplement of paper PMC10331698.
± gives the standard deviation of the averaged measurements.

How the values were obtained:
Assay in all cases: LOEC (log10 uM (lowest observed effect concentration))
[1] = compound: OCCC(F)(F)C(F)(F)C(F)(F)C(F)(F)C(F)(F)C(F)(F)C(F)(F)C(F)(F)F [8:2 Fluorotelomer alcohol]
Method: (§1)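 BioMAP Diversity Plus panel in human primary cell co-cultures, 4 concentrations in duplicate blinded samples. Responses are log10 fold change versus DMSO control, processed with tcpl v2.1.0. A hit is called when responses at any concentration exceed the cutoff (the larger of 3*bmad or log10(1.2)); the lowest observed effect concentration (modl_ga, log10 uM) is reported for hits.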

[2] = compound: O=C(CC(=O)C(F)(F)C(F)(F)C(F)(F)F)c1cccs1 [(Perfluorobutyryl)-2-thenoylmethane]
Method: as §1

[3] = compound: FC(F)(I)C(F)(F)C(F)(F)C(F)(F)C(F)(F)C(F)(F)I [1,6-Diiodoperfluorohexane]
Method: as §1

[4] = compound: OCCCC(F)(F)C(F)(F)C(F)(F)C(F)(F)C(F)(F)C(F)(F)C(F)(F)C(F)(F)F [3-(Perfluorooctyl)propanol]
Method: as §1

[5] = compound: OCC(F)(F)C(F)(F)C(F)(F)C(F)(F)C(F)(F)C(F)(F)C(F)(F)C(F)(F)CO [1H,1H,10H,10H-Perfluorodecane-1,10-diol]
Method: as §1

[6] = compound: C=CC(=O)OCC(F)(F)C(F)(F)C(F)(F)C(F)(F)COC(=O)C=C [1H,1H,6H,6H-Perfluorohexane-1,6-diol diacrylate]
Method: as §1

Perfluoropinacol = compound: OC(C(F)(F)F)(C(F)(F)F)C(O)(C(F)(F)F)C(F)(F)F [Perfluoropinacol]
Method: as §1

| Test System | LOEC (log10 uM) [1] | LOEC (log10 uM) [2] | LOEC (log10 uM) [3] | LOEC (log10 uM) [4] | LOEC (log10 uM) [5] | LOEC (log10 uM) [6] | LOEC (log10 uM) (Perfluoropinacol) |
| --- | --- | --- | --- | --- | --- | --- | --- |
| BE3C Keratin818 down | 1.54 ± 0.34 | 1.3 | 1.78 | 1.78 | – | – | – |
| IMphg IL1a down | – | – | – | 1.78 | 1.78 | – | – |
| hDFCGF IL8 down | 1.3 | – | 0.845 | 1.3 | 1.78 | 1.3 | – |
| 4H SRB down | 1.3 | 1.3 | 1.54 ± 0.34 | 1.3 | – | 1.3 | 1.3 |
| CASM3C TissueFactor down | 1.78 | 0.845 | – | 1.78 | – | – | – |
| MyoF Decorin down | 1.3 | – | 1.3 | 1.3 | – | 1.3 | 1.78 |
| BF4T uPA down | 1.78 | 1.54 ± 0.34 | 1.54 ± 0.34 | 1.54 ± 0.34 | – | 1.78 | – |
| hDFCGF EGFR down | 1.54 ± 0.34 | – | – | 0.845 | 1.78 | – | 1.54 ± 0.34 |
| MyoF IL8 down | 1.3 | – | 1.3 | 1.3 | – | 1.3 | – |
| KF3CT ICAM1 down | 1.3 | – | 1.07 ± 0.32 | 1.3 | 1.78 | 1.3 | – |
| MyoF CollagenIV down | – | – | – | – | – | 1.3 | – |
| BF4T Eotaxin3 down | 1.3 | 0.845 | 1.3 | 1.54 ± 0.34 | 1.78 | 1.78 | 1.3 |
| BF4T CD90 down | – | – | – | 1.54 ± 0.34 | – | – | – |
| hDFCGF PAI1 down | 1.3 | – | 0.845 | 0.845 | 1.78 | 1.3 | 1.78 |
| MyoF SRB down | 1.3 | – | 0.845 | 1.3 | – | 1.3 | 1.78 |
| KF3CT uPA down | 1.3 | – | 1.3 | 1.3 | – | 1.3 | – |
| 3C IL8 down | 1.78 | 0.845 | 1.54 ± 0.34 | 1.3 | – | 1.54 ± 0.34 | 1.78 |
| 3C MCP1 down | 1.78 | 1.3 | 1.54 ± 0.34 | 1.3 | – | 1.3 | 1.78 |
| CASM3C MCSF down | 1.54 ± 0.34 | 1.78 | 1.3 | 1.3 | – | 1.07 ± 0.32 | 1.78 |
| BE3C ICAM1 down | 1.54 ± 0.34 | 1.3 | 1.78 | 1.78 | 1.78 | 1.54 ± 0.34 | – |
| KF3CT SRB down | 1.3 | – | 1.07 ± 0.32 | 1.3 | 1.78 | 1.78 | 1.78 |
| CASM3C SRB down | 1.78 | 1.78 | 1.3 | 1.54 ± 0.34 | – | 1.78 | 1.78 |
| MyoF MMP1 down | – | – | – | 1.3 | – | – | – |
| BF4T MMP3 down | – | 1.54 ± 0.34 | 1.3 | 1.78 | – | – | – |
| LPS MCP1 down | 1.3 | 1.3 | 1.78 | 1.07 ± 0.32 | – | 1.3 | 1.3 |

| Test System | LOEC (log10 uM) [1] | LOEC (log10 uM) [2] | LOEC (log10 uM) [3] | LOEC (log10 uM) [4] | LOEC (log10 uM) [5] | LOEC (log10 uM) [6] | LOEC (log10 uM) (Perfluoropinacol) |
| --- | --- | --- | --- | --- | --- | --- | --- |
| 3C HLADR down | 1.3 | 1.07 ± 0.32 | 1.54 ± 0.34 | 1.3 | – | 1.3 | 1.3 |
| SAg MIG down | 1.78 | 1.78 | 1.78 | 1.78 | – | 1.3 | 1.78 |
| CASM3C IL6 down | – | 1.78 | 1.54 ± 0.34 | – | – | – | – |
| 4H MCP1 down | – | 1.3 | 1.54 ± 0.34 | 1.78 | – | 1.78 | 1.54 ± 0.34 |
| CASM3C MIG down | 1.78 | 1.54 ± 0.34 | 1.3 | 1.3 | – | 0.845 | 1.78 |
| hDFCGF TIMP1 down | 1.3 | – | 1.07 ± 0.32 | 1.07 ± 0.32 | 1.78 | 0.845 | – |
| LPS TissueFactor down | 1.78 | – | 1.78 | 1.31 ± 0.66 | – | 1.3 | 1.78 |
| CASM3C PAI1 down | 1.78 | – | 1.78 | 1.78 | – | 1.78 | – |
| LPS SRB down | 1.3 | 1.3 | 1.78 | 1.3 | – | 1.3 | 1.3 |
| 3C ICAM1 down | 1.78 | 1.78 | 1.78 | 1.3 | – | 1.54 ± 0.34 | – |
| BE3C PAI1 down | 1.3 | 0.301 | 1.54 ± 0.34 | 1.78 | 1.78 | – | 1.07 ± 0.32 |
| 4H VCAM1 down | 1.54 ± 0.34 | 1.3 | 1.3 | 1.54 ± 0.34 | 1.78 | 1.3 | 1.3 |
| 3C Thrombomodulin up | – | – | 1.54 ± 0.34 | – | – | – | – |
| BF4T SRB down | 1.54 ± 0.34 | 1.78 | 1.3 | 1.3 | 1.78 | – | – |
| LPS PGE2 down | – | – | – | – | – | 1.3 | – |
| KF3CT IP10 down | 1.3 | – | 1.3 | 1.3 | – | 1.3 | 1.78 |
| BE3C EGFR down | – | 1.31 ± 0.66 | 1.78 | 1.78 | 1.78 | 1.54 ± 0.34 | – |
| IMphg SRB down | 1.78 | 1.3 | 1.3 | 1.54 ± 0.34 | 1.78 | – | 1.3 |
| hDFCGF MMP1 down | 1.3 | 1.3 | 0.845 | 1.3 | 1.78 | 1.3 | – |
| 3C VCAM1 down | 1.3 | 1.3 | 1.54 ± 0.34 | 1.3 | – | 1.3 | 1.78 |
| BF4T PAI1 down | 1.78 | 1.3 | 1.07 ± 0.32 | 1.3 | 1.3 | – | 1.3 |
| KF3CT ICAM1 up | – | – | – | – | – | – | 1.78 |
| CASM3C Thrombomodulin up | – | – | 1.3 | – | – | – | – |
| MyoF bFGF down | 1.3 | – | 0.845 | 1.3 | – | 1.3 | – |
| SAg IL8 down | 1.78 | 1.07 ± 0.32 | 1.78 | 1.78 | – | 1.3 | 1.54 ± 0.34 |
